From patent US8067424B2, “Selective inhibitors for cyclin-dependent kinases” (Emory University, priority 2007, dated 2011)
pIC50: −log10 of the molar value. Like-named read-outs stand apart in the source and are kept apart here.

Tests used:
Assay type in all cases: biochemical
EFK2 = EFK2 (Homo sapiens, UniProt O00418); assay: Kinase screen: EF2K assay
Description: (§1) Generally, the same procedure was used for all assays. Since the total assay volume was 25.5 microliters, 0.5 microliters of inhibitors at 51× assay concentration were added to the plates before any other addition.
(§2) The basic procedure was to add 0.5 microliters inhibitor/control in DMSO to plate. Fifteen microliters of enzyme/substrate/buffer mix were added and incubated for 5 min. Ten microliters MgATP at the relevant concentration were added and incubated for 30 min. The assay was stopped by adding 5 microliters of 3% orthophosphoric acid. The assay was transferred to a p81 filter plate and read in a scintillation counter of 30 sec/well. Note that this assay procedure was not followed for MKK1, which instead involved a two-step assay, and PKC alpha, which required the addition of lipid vesicles.
EF2K assay: EF2K (5-20 mU diluted in 50 mM Hepes pH 6.6, 0.1% b-mercaptoethanol, 1 mg/ml BSA) was assayed against a substrate peptide ([…]) (SEQ ID NO: 27) in a final volume of 25.5 μl containing 50 mM Hepes pH 6.6, 0.2 mM CaCl2, 0.3 μM Calmodulin, 0.05% b-mercaptoethanol, 300 μM substrate peptide, 10 mM magnesium acetate and 0.005 mM [33P-g-ATP] (50-1000 cpm/pmole) and incubated for 30 min at room temperature. Assays were stopped by addition of 5 μl of 0.5 M (3%) orthophosphoric acid and then harvested onto P81 Unifilter plates with a wash buffer of 50 mM orthophosphoric acid.

p38α MAPK = p38α MAPK (Homo sapiens, UniProt Q16539); assay: Kinase screen: SAPK 2a/p38 assay
Chain of p38α MAPK (Q16539 whole entry): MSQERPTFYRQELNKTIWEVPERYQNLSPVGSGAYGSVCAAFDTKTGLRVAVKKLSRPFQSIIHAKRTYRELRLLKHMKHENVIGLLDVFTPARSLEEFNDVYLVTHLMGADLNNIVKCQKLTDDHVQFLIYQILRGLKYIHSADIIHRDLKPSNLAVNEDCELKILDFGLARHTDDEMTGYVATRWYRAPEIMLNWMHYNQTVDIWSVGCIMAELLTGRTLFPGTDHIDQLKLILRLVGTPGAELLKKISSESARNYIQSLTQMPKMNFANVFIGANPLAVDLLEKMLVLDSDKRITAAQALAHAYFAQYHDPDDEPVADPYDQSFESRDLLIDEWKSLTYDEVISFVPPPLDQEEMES
Description: as §1, §2
SAPK 2a/p38 assay: SAPK 2a/p38 (5-20 mU diluted in 50 mM Tris pH 7.5, 0.1 mM EGTA, 0.1 mM Na3VO4, 0.1% b-mercaptoethanol, 1 mg/ml BSA) was assayed against MBP in a final volume of 25.5 μl containing 25 mM Tris pH 7.5, 0.1 mM EGTA, 0.33 mg/ml MBP, 10 mM magnesium acetate and 0.05 mM [33P-g-ATP] (50-1000 cpm/pmole) and incubated for 30 min at room temperature. Assays were stopped by addition of 5 μl of 0.5 M (3%) orthophosphoric acid and then harvested onto P81 Unifilter plates with a wash buffer of 50 mM orthophosphoric acid.

MST4 = MST4 (Homo sapiens, UniProt Q9P289); assay: Kinase screen: MST4 assay; conditions: 10 micromolar compound; for remaining activity at 10 µM: read-out: mean activity remaining (as a percentage of the original activity), MST4
Chain of MST4 (Q9P289 whole entry, species assumed): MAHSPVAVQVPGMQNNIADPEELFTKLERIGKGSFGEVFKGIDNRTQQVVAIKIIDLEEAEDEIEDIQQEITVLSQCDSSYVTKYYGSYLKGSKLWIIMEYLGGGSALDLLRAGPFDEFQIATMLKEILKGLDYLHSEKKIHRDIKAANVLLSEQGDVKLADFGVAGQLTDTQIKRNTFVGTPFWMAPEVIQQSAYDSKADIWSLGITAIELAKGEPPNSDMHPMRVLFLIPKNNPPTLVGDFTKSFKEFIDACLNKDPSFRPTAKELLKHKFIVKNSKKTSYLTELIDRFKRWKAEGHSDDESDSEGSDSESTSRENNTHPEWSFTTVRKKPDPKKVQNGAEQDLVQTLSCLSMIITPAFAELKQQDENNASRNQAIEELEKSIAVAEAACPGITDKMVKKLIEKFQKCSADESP
Description: as §1, §2
MST4 assay: 5-20 mU of MST4 (diluted in 50 mM Tris (pH 7.5), 0.1 mM EGTA) was assayed against MBP in a final volume of 25.5 μl containing 50 mM Tris (pH 7.5), 0.1 mM EGTA, 0.33 mg/ml MBP, 10 mM magnesium acetate and 0.02 mM [33P-g-ATP] (500-1000 cpm/pmole) and incubated for 30 mins at room temperature. Assays were stopped by addition of 5 μl of 0.5M (3%) orthophosphoric acid. Assays were harvested onto P81 Unifilter plates using a wash buffer of 50 mM orthophosphoric acid.

PKBβ = target: T1, PKBβ (Homo sapiens, UniProt P31751, S474D); assay: Kinase screen: ΔPH-PKBbeta (S474D) assay
T1 construct: ΔPH-PKBbeta (S474D) assay: ΔPH-PKBbeta-S474D (5-20 mU diluted)
T1 sequence (P31751 120-481 S474D limits assumed, species assumed): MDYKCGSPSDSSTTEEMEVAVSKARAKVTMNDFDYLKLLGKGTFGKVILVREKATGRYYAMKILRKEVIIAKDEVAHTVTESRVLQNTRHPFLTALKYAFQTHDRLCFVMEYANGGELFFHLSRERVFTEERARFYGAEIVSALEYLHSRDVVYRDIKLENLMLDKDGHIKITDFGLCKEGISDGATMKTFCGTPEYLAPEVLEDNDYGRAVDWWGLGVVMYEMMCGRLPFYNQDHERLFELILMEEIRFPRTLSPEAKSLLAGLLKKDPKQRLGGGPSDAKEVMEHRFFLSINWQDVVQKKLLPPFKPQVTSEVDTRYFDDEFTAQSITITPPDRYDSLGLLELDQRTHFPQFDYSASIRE
Description: as §1, §2
ΔPH-PKBbeta (S474D) assay: ΔPH-PKBbeta-S474D (5-20 mU diluted in 50 mM Tris pH 7.5, 0.1 mM EGTA, 0.1% b-mercaptoethanol, 1 mg/ml BSA) was assayed against a modified Crosstide peptide ([…]) (SEQ ID NO: 4) in a final volume of 25.5 μl containing 50 mM Tris pH 7.5, 0.05% b-mercaptoethanol, 30 μM substrate peptide, 10 mM magnesium acetate and 0.05 mM [33P-g-ATP] (50-1000 cpm/pmole) and incubated for 30 min at room temperature. Assays were stopped by addition of 5 μl of 0.5 M (3%) orthophosphoric acid and then harvested onto P81 Unifilter plates with a wash buffer of 50 mM orthophosphoric acid.

CDK4 = CDK4 (Homo sapiens, UniProt P11802); assay: CDK4 in vitro kinase inhibition (protocol similar to Example 14); conditions: for remaining activity at 0.1 µM: 100 nM, mean of three (standard deviation), read-out: CDK4 % remaining kinase activity after incubation with 100 nM of compound; for pIC50: Table 7, mean of three experiments
Chain of CDK4 (P11802 whole entry): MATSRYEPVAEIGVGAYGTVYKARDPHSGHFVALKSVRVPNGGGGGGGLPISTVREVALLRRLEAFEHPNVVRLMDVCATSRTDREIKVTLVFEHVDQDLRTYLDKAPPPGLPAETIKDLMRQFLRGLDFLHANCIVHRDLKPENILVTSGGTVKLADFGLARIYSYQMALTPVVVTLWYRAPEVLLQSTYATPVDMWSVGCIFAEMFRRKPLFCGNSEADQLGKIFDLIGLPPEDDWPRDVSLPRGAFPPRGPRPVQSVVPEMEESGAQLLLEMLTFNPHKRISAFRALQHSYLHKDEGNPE
Chain of CDK4 (P24385 whole entry partner): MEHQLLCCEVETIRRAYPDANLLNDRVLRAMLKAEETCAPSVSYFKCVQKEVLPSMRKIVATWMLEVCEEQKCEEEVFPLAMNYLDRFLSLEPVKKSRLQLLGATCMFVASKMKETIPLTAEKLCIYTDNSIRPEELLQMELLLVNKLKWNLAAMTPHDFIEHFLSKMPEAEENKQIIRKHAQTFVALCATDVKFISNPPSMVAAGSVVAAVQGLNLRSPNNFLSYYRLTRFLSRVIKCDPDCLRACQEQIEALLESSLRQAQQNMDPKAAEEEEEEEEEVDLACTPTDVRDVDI

CDK 5 = CDK 5 (Homo sapiens, UniProt Q00535); assay: CDK5 in vitro kinase inhibition (protocol similar to Example 14); conditions: for remaining activity at 0.1 µM: 100 nM, mean of three (standard deviation), read-out: CDK5 % remaining kinase activity after incubation with 100 nM of compound; for pIC50: Table 7, mean of three experiments
Chain of CDK 5 (Q00535 whole entry): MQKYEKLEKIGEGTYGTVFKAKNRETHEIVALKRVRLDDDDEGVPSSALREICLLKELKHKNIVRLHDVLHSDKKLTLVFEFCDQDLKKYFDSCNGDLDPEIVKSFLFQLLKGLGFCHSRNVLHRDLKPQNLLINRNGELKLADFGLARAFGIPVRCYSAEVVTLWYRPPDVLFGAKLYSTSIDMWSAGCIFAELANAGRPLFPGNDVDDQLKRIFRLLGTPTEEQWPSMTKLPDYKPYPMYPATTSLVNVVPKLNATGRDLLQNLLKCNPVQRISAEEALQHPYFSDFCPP
Chain of CDK 5 (Q15078 whole entry partner): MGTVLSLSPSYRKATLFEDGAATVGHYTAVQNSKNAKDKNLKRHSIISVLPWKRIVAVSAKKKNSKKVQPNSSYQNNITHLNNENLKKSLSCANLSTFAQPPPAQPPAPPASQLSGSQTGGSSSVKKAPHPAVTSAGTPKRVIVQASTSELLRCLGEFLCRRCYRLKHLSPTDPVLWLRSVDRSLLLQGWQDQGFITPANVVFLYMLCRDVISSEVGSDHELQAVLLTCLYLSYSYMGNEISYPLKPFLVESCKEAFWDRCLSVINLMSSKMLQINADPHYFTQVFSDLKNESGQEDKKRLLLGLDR

[1] = 10 micromolar compound, read-out: mean activity remaining (as a percentage of the original activity), EFK2
[2] = 10 micromolar compound, read-out: mean activity remaining (as a percentage of the original activity), p38a2 MAPK
[3] = 0.5 h, 10 micromolar compound, read-out: mean activity remaining (as a percentage of the original activity), PKBb

Question: For CC(C)c1cnn2c(NCc3ccccc3F)cc(NCCCCCN)nc12 [ICEC-0232], which “mean activity remaining (as a percentage of the original activity), EFK2” value (EFK2; 10 micromolar compound) is on record?
Answer: 98%

Question: What about the “mean activity remaining (as a percentage of the original activity), p38a2 MAPK” value (p38α MAPK; 10 micromolar compound) of the same molecule?
Answer: 86%

Question: And the “mean activity remaining (as a percentage of the original activity), MST4” value (MST4)?
Answer: 85%

Question: And the “mean activity remaining (as a percentage of the original activity), PKBb” value (PKBβ; 10 micromolar compound)?
Answer: 76%

Question: How did the remaining activity at 10 µM (EFK2; EFK2, 10 μM, read-out: Mean Remaining Enzyme Activity (%)) turn out when CC(C)c1cnn2c(NCc3ccccc3)cc(NCCCCCCCN)nc12 [BS-181] was run?
Answer: 119%

Question: What about the remaining activity at 10 µM (p38α MAPK; p38α MAPK, 10 μM, read-out: Mean Remaining Enzyme Activity (%)) of the same molecule?
Answer: 95%

Question: And the remaining activity at 10 µM (PKBβ; PKBβ, 10 μM, read-out: Mean Remaining Enzyme Activity (%))?
Answer: 81%

Question: Which results are given for CC[C@H](CO)Nc1cc(NCc2ccccc2)n2ncc(C(C)C)c2n1 [ICEC0067]?
Answer: remaining activity at 10 µM (EFK2; [1]): 95%; remaining activity at 10 µM (p38α MAPK; [2]): 99%; remaining activity at 0.1 µM (CDK4): 88%; pIC50 (CDK4): < 6.00; remaining activity at 10 µM (MST4): 103%; remaining activity at 0.1 µM (CDK 5): 84%; remaining activity at 10 µM (PKBβ; [3]): 102%

Question: With C=C[C@H](CO)Nc1cc(NCc2ccccc2)n2ncc(C(C)C)c2n1 [ICEC0065] as the molecule, how does the remaining activity at 10 µM (EFK2; [1]) read?
Answer: 97%

Question: And the remaining activity at 10 µM (p38α MAPK; [2])?
Answer: 94%

Question: And the remaining activity at 0.1 µM (CDK4)?
Answer: 77%

Question: And the pIC50 (CDK4)?
Answer: < 6.00

Question: What about the remaining activity at 10 µM (MST4) of the same molecule?
Answer: 91%

Question: And the remaining activity at 0.1 µM (CDK 5)?
Answer: 83%

Question: What about the pIC50 (CDK 5) of the same molecule?
Answer: < 6.00

Question: And the remaining activity at 10 µM (PKBβ; [3])?
Answer: 109%

Question: With CC(C)c1cnn2c(NCc3ccccc3)cc(N[C@@H](CO)[C@H](O)CO)nc12 [ICEC0318, (3S)-3-(7-(Benzylamino)-3-isopropylpyrazolo[1,5-a]pyrimidin-5-ylamino)butane-1,2,4-triol] as the molecule, how does the remaining activity at 10 µM (EFK2; [1]) read?
Answer: 92%

Question: And the remaining activity at 10 µM (p38α MAPK; [2])?
Answer: 98%

Question: And the remaining activity at 0.1 µM (CDK4)?
Answer: 88%

Question: And the pIC50 (CDK4)?
Answer: < 6.00

Question: What about the remaining activity at 10 µM (MST4) of the same molecule?
Answer: 92%

Question: What about the remaining activity at 0.1 µM (CDK 5) of the same molecule?
Answer: 14%

Question: And the pIC50 (CDK 5)?
Answer: 7.52

Question: What about the remaining activity at 10 µM (PKBβ; [3]) of the same molecule?
Answer: 105%
